The structures appear in SMILES notation. ± gives the expanded uncertainty stated by the source.

From the NIST ThermoML archive (doi:10.1021/je034189g) come the findings set out here.

The conditions of this data set: Liquid; Ebulliometric method (Recirculating still).
In the case of `COc1ccccc1` [anisole], the Normal boiling temperature worked out at 153.62 ± 0.15 °C.
The result for `C1CCCCC1` [cyclohexane] reads 80.63 ± 0.15 °C; that for `c1ccccc1` [benzene], 80.01 ± 0.15 °C.
The value for `CCCCCO` [pentan-1-ol] was 137.63 ± 0.15 °C.
